Laboratory results reported in patent US5281717A, “Epoxysuccinamic acid derivatives” (Taisho Pharmaceutical Co., Ltd., priority 1990, dated 1994).
Where two headings read alike, the source gives them in different places.

Columns and labels:
Assay type in all cases: biochemical
papain = target: T1, papain (Carica papaya, UniProt P00784); test: Inhibitory Activity Against Papain
T1 construct: purchased Sigma Chemical Co
T1 sequence (P00784 134-345): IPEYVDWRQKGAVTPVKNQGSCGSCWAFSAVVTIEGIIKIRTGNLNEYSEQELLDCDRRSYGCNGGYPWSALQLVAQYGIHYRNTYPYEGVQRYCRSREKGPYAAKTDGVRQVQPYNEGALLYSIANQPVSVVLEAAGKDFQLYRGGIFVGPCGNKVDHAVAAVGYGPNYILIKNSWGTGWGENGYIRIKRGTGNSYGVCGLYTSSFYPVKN
Method: (§1) The inhibitory activities against papain, CANP and cathepsin B were measured according to the following methods, and results are shown in Table 1.
The measurement was carried out according to the method of A. J. Barrett et al [Biochem. J., vol. 201, p. 189 (1982)].
To each of 0.95 ml of the reaction solutions containing 2.5 mM 2-mercaptoethanol, 1 mM disodium ethylenediaminetetraacetate, 0.1 M sodium potassium phosphate buffer (pH 6.8), 0.1% Brij-35 (produced by Nacalai Tesque Inc.), 1% dimethyl sulfoxide and various concentrations of the test drug was added 25 μl of a papain solution (produced by Sigma Chemical Co.), and the mixture was preincubated at 40° C. for 3 minutes, after which 25 μl of 200 μM benzyloxycarbonyl-L-phenylalanyl-L-arginine 4-methylcoumaryl-7-amide (produced by Peptide Institute Inc.) was added for starting the reaction After incubation at 40° C. for 10 minutes, the reaction was stopped by addition of 1 ml of 100 mM sodium acetate buffer solution (pH 4.3) containing 100 mM sodium chloroacetate. The fluorescence of the liberated 7-amino-4-methylcoumarine was determined using a Shimazu fluorometer RF-5000 with excitation at 380 nm and emission measured at 440 nm. […]

μ CANP (Calpain I) = target: T2, μ CANP (Calpain I) (Homo sapiens, UniProt P07384); test: Inhibitory Activity Against CANP; conditions: pH 7.5, 30° C., preincubated 5 minutes, incubation 20 minutes, alkali-denatured casein
T2 construct: purchased Nacalai Tesque Inc
T2 sequence (P07384 2-714 limits assumed): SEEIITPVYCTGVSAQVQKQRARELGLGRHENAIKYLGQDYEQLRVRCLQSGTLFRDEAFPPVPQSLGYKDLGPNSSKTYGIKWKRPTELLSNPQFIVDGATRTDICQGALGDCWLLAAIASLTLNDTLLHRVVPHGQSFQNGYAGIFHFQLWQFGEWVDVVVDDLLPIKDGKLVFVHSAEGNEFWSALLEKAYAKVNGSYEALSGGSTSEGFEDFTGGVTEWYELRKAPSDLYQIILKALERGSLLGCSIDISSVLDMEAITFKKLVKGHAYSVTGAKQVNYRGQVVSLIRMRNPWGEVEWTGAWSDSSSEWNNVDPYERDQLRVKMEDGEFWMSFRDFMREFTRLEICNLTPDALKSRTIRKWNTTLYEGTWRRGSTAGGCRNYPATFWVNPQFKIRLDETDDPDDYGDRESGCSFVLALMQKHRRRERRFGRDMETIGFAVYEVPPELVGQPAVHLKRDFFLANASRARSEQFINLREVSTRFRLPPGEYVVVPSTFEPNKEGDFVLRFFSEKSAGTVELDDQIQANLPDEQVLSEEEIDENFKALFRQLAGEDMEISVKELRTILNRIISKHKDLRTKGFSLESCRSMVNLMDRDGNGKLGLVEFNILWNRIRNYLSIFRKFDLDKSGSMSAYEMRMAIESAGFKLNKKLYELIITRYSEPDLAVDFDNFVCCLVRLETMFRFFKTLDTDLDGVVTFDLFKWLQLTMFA
T2 sequence (P04632 1-268 partner): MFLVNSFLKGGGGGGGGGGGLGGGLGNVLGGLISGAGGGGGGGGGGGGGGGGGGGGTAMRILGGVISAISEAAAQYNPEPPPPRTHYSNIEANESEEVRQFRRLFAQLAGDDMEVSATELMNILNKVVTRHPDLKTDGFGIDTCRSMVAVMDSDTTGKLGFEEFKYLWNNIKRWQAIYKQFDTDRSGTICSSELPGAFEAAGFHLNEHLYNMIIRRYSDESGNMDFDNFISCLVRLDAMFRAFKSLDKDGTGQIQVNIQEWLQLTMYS
Method: as §1
The measurement was carried out according to the method of S. Ishiura et al (J. Biochem., vol. 84, p. 225 (1978)].
Each of 0.45 ml of the reaction solutions containing 25 mM 2-mercaptoethanol, 5 mM calcium chloride, 0.1 M sodium glycerophosphate-HCl buffer (pH 7.5), 0.24% alkali-denatured casein, 1% dimethylsulfoxide and various concentrations of the test drug was preincubated accurately at 30° C. for 5 minutes, and 50 μl of a solution containing 5 μg of μ CANP (Calpain I, produced by Nacalai Tesque Inc.) was added for starting the reaction. After exact incubation at 30° C. for 20 minutes, the reaction was stopped by addition of 0.5 ml of 10% trichloroacetic acid. After being allowed to stand at room temperature for 60 minutes, the mixture was centrifuged at 3000 × g for 5 minutes, and the absorbance at 280 nm of the supernatant was determined. The remaining activity was obtained by reducing the blank value which was obtained in a similar manner to the above but adding 10% trichloroacetic acid prior to addition of μ CANP from the above value. […]

cathepsin B = target: T3, cathepsin B (Homo sapiens, UniProt P07858); test: Inhibitory Activity against Cathepsin B; conditions: pH 6.0, 40° C., preincubated 3 minutes, incubation 10 minutes, substrate benzyloxycarbonyl-L-phenylalanyl-L-arginine 4-methylcoumaryl-7-amide
T3 construct: purchased Sigma Chemical Co
Method: To each of 0.95 ml of the reaction solutions containing 2.5 mM 2-mercaptoethanol, 1 mM disodium ethylenediaminetetraacetate, 0.1 M sodium potassium phosphate buffer (pH 6.0), 0.1% Brij-35 (produced by Nacalai Tesque Inc.), 1% dimethyl sulfoxide and various concentrations of the test drug was added 25 μl of 200 nM cathepsin B solution (produced by Sigma Chemical Co.), and the mixture was preincubated at 40° C. for 3 minutes, after which 25 μl of 200 μM benzyloxycarbonyl-L-phenylalanyl-L-arginine 4-methylcoumaryl-7-amide (produced by Peptide Institute Inc.) was added for starting the reaction After incubation at 40° C. for 10 minutes, the reaction was stopped by addition of 1 ml of 100 mM sodium acetate buffer (pH 4.3) containing 100 nM sodium chloroacetate. The fluorescence of the liberated 7-amino-4-methyl-coumarine was determined using a Shimazu fluorometer RP-5000 with excitation at 380 nm and emission measured at 440 nm.

| IC50 (papain; pH 6.8, 40° C., preincubated 3 minutes, incubation 10 minutes, substrate benzyloxycarbonyl-L-phenylalanyl-L-arginine 4-methylcoumaryl-7-amide, read-out: Inhibitory Activity Value [IC50 (nM)] Papain) [nM] | Structure (SMILES) | IC50 (μ CANP (Calpain I)) [nM] | IC50 (papain) [nM] | IC50 (cathepsin B) [nM] |
| --- | --- | --- | --- | --- |
| 57400 | CCCNC(=O)[C@H]1O[C@@H]1C(=O)N[C@H](C(=O)N1CCC[C@H]1C(=O)O)[C@@H](C)CC [Compound 1d, N-(L-3-trans-n-propylcarbamoyloxirane-2-carbonyl)-L-isoleucyl-L-proline] | > 200000 |  |  |
|  | CCCCCNC(=O)[C@H]1O[C@@H]1C(=O)N[C@H](C(=O)N1CCC[C@H]1C(=O)O)[C@@H](C)CC [Compound 8d] | > 200000 | 26000 | 32 |
